From patent publication US20250288587A1, “Methods of Treating Fibrosis” (Athira Pharma, Inc., priority 2022, published 2025)

What was measured:
[1] = system: C57BL/6 mice, bleomycin-induced pulmonary fibrosis; test: Bleomycin-induced pulmonary fibrosis in mice; format: in vivo; design: key to Collagen, improvement in BLM-induced alterations versus disease control / Alpha-Smooth Muscle Actin, improvement in BLM-induced alterations versus disease control / Body Weight, improvement in BLM-induced alterations versus disease control / Right Lung Weight, improvement in BLM-induced alterations versus disease control / Hydroxyproline, improvement in BLM-induced alterations versus disease control: + = >5-25% improvement vs disease control; ++ = >26-50% improvement vs disease control; +++ = >51-100% improvement v disease control; NS means not significant; conditions: for Body Weight, improvement in BLM-induced alterations versus disease control / Right Lung Weight, improvement in BLM-induced alterations versus disease control: days 3-21; for Collagen, improvement in BLM-induced alterations versus disease control / Hydroxyproline, improvement in BLM-induced alterations versus disease control / TGF-Beta, improvement in BLM-induced alterations versus disease control: right lung homogenate
Protocol: Lung fibrosis in C57BL/6 mice is induced by a single […] injection of the chemotherapy drug bleomycin. Mice are treated with vehicle or test compound. At termination (study day 28), one lung is weighed, with increased weight indicating more advanced fibrosis. Lung tissue is also homogenized for hydroxyproline, collagen, and TGF-β quantification. Lung tissue is also formalin-fixed and further processed for H&E, collagen morphometry, Ashcroft's score, and both α-SMA and TUNEL expression analyses. Plasma is analyzed by multiplex bead array for MMP-2, MMP-9, IL-1β, IL-6, IL-12, and TNF-α expression.
The experimental design described in Example B1 with the following changes was used to assess the ability of Compound 1a to reduce pulmonary fibrosis. Briefly, Male C57BL/6 mice (Envigo) […] were used. The mice were 3.5-4 months old and ˜24-30 g by weight. On day −1 animals were randomized based on body weight and the animals were assigned with a permanent number by ear notching. Cages were identified by cage cards indicating the study code, group number, sex, dose, cage number, number of animals and animal number details.
On day 0, all animals (except the sham control animals) were administered bleomycin (0.03 U in 50 μl normal saline) intratracheally (i.t.) under Ketamine+Xylazine anesthesia. The sham control animals were dosed with 50 μl of normal saline intratracheally. Pirfenidone was used as a positive control; this compound is known to downregulate growth factors and procollagens to reduce fibrosis and is an approved drug for the treatment of idiopathic pulmonary fibrosis.
Vehicle, pirfenidone and test Compound 1a dosing was initiated from day 3 to day 21 as described in the following Table 2. On day 21 whole blood was collected 1-hour post-dose into EDTA and then processed to plasma. Right lungs were then collected, weighed, snap frozen and later homogenized for biochemical analysis. Hydroxyproline, collagen and TGF-Beta levels were measured in the right lung homogenates.

[2] = system: BALB/c mice, CCl4 mouse model of liver fibrosis; test: CCl4-induced liver fibrosis, plasma AST; format: in vivo; conditions: for AST in plasma, improvement compared to disease control: from study day 21, termination day 43
Protocol: Liver fibrosis in BALB/c mice was induced by biweekly intraperitoneal injections of carbon tetrachloride (CCl4) from study day 0 to 43. Mice were treated with vehicle, Compound 1a, or positive control, SB535334, beginning at study day 21. At termination (study day 43), plasma was tested for liver function via levels of aspartate aminotransferase (AST).
AST can be used as a marker of liver damage, because increased levels are released in the blood stream in chronic liver disease.

[3] = dose 0.2 mg/kg PO daily, day 21
[4] = dose 0.8 mg/kg PO daily, day 21

CCC(C)CN1CC2N(C(=O)c3ccc(C(F)(F)F)cc3)CCC(=O)N2[C@@H](C)C1=O (some centres unmarked) [Compound 1a]
body weight loss compared to the other treatment groups ([1]; 0.8 mg/k): slightly greater weight loss
collagen in right lung homogenate compared with pirfenidone ([1]; 2 mg/kg): about the same levels of collagen
collagen concentration in right lung homogenates ([1]; 8 mg/kg): reduced compared to the pirfenidone positive control
hydroxyproline concentration in right lung homogenates at termination ([1]; 8 mg/kg and 2 mg/kg, also less than pirfenidone-treated animals): lower concentrations of hydroxyproline
weight of whole right lungs at termination (day 21) ([1]; 8 mg/kg and 2 mg/kg, versus pirfenidone-treated animals): less than the positive control
alpha-smooth muscle actin expression ([1]; 8 mg/kg, day 21): significantly reduced expression of this marker
bleomycin-induced increases in TGF-β in right lung homogenates ([1]; all doses, day 21): significantly protected against bleomycin-induced increases in TGF-β
protection against bleomycin-induced body weight loss ([1]; all treatment groups, over the study period): did not protect against body weight loss
Body Weight, improvement in BLM-induced alterations versus disease control ([1]; dose 0.2 mg/kg PO daily): NS
Right Lung Weight, improvement in BLM-induced alterations versus disease control [1, 3]: NS
Alpha-Smooth Muscle Actin, improvement in BLM-induced alterations versus disease control [1, 3]: + (+ = >5-25% improvement vs disease control)
Collagen, improvement in BLM-induced alterations versus disease control [1, 3]: NS
Hydroxyproline, improvement in BLM-induced alterations versus disease control [1, 3]: NS
TGF-Beta, improvement in BLM-induced alterations versus disease control [1, 3]: +++ (+++ = >51-100% improvement v disease control)
Body Weight, improvement in BLM-induced alterations versus disease control ([1]; dose 0.8 mg/kg PO daily): NS
Right Lung Weight, improvement in BLM-induced alterations versus disease control [1, 4]: + (+ = >5-25% improvement vs disease control)
Alpha-Smooth Muscle Actin, improvement in BLM-induced alterations versus disease control [1, 4]: NS
Collagen, improvement in BLM-induced alterations versus disease control [1, 4]: + (+ = >5-25% improvement vs disease control)
Hydroxyproline, improvement in BLM-induced alterations versus disease control [1, 4]: NS
TGF-Beta, improvement in BLM-induced alterations versus disease control [1, 4]: +++ (+++ = >51-100% improvement v disease control)
Body Weight, improvement in BLM-induced alterations versus disease control ([1]; dose 2 mg/kg PO daily): NS
Right Lung Weight, improvement in BLM-induced alterations versus disease control ([1]; dose 2 mg/kg PO daily, day 21): + (+ = >5-25% improvement vs disease control)
Alpha-Smooth Muscle Actin, improvement in BLM-induced alterations versus disease control ([1]; dose 2 mg/kg PO daily, day 21): + (+ = >5-25% improvement vs disease control)
Collagen, improvement in BLM-induced alterations versus disease control ([1]; dose 2 mg/kg PO daily, day 21): ++ (++ = >26-50% improvement vs disease control)
Hydroxyproline, improvement in BLM-induced alterations versus disease control ([1]; dose 2 mg/kg PO daily, day 21): ++ (++ = >26-50% improvement vs disease control)
TGF-Beta, improvement in BLM-induced alterations versus disease control ([1]; dose 2 mg/kg PO daily, day 21): +++ (+++ = >51-100% improvement v disease control)
Body Weight, improvement in BLM-induced alterations versus disease control ([1]; dose 8 mg/kg PO daily): NS
Right Lung Weight, improvement in BLM-induced alterations versus disease control ([1]; dose 8 mg/kg PO daily, day 21): ++ (++ = >26-50% improvement vs disease control)
Alpha-Smooth Muscle Actin, improvement in BLM-induced alterations versus disease control ([1]; dose 8 mg/kg PO daily, day 21): ++ (++ = >26-50% improvement vs disease control)
Collagen, improvement in BLM-induced alterations versus disease control ([1]; dose 8 mg/kg PO daily, day 21): +++ (+++ = >51-100% improvement v disease control)
Hydroxyproline, improvement in BLM-induced alterations versus disease control ([1]; dose 8 mg/kg PO daily, day 21): + (+ = >5-25% improvement vs disease control)
TGF-Beta, improvement in BLM-induced alterations versus disease control ([1]; dose 8 mg/kg PO daily, day 21): +++ (+++ = >51-100% improvement v disease control)
alpha-smooth muscle actin morphometory ([1]; other doses of Compound 1a, pirfenidone doses, day 21): insignificant decreases
AST levels in plasma compared to CCl4-treated mice receiving vehicle ([2]; 0.5 mg/kg, 8 mg/kg, and 16 mg/kg): modest but non-significant decreases
AST in plasma, improvement compared to disease control ([2]; Dose 0.5 (mg/kg)): ++ (++ = >26-50% improvement compared to disease control)
AST in plasma, improvement compared to disease control ([2]; Dose 2 (mg/kg)): − (− = change of <5% compared to disease control)
AST in plasma, improvement compared to disease control ([2]; Dose 8 (mg/kg)): ++ (++ = >26-50% improvement compared to disease control)
AST in plasma, improvement compared to disease control ([2]; Dose 16 (mg/kg)): ++ (++ = >26-50% improvement compared to disease control)
